Assay [1] deals with T1, RIPK1 (Homo sapiens, UniProt Q13546).
T1 construct: Following incubation of I2.1 cells with the probe, irradiation to induce photocrosslinking; endogenous in cells; host or cells: I2.1 FADD-deficient Jurkat T cells (ATCC, CRL-2572)
T1 sequence (Q13546 1-671): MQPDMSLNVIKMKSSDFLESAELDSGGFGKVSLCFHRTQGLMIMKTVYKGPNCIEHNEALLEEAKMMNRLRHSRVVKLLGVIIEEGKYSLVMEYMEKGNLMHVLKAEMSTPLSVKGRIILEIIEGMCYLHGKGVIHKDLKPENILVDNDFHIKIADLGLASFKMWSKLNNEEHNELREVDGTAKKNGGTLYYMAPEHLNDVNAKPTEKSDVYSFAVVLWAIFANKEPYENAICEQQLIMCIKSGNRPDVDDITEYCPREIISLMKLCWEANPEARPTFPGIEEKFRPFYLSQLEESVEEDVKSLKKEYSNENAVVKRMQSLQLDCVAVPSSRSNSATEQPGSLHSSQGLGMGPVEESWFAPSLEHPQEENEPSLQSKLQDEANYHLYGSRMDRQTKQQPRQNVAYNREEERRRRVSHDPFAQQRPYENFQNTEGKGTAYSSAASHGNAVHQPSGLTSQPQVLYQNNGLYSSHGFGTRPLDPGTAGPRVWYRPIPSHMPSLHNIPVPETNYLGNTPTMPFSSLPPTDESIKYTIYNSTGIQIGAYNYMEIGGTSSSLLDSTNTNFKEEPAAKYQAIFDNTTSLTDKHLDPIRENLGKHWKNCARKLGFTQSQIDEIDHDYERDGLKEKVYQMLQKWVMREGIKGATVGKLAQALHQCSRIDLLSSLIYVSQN
The assay is described as follows: Streptavidin mass shift assay (photoaffinity labeling, target engagement) in I2.1 cells. It counts as cell-based. The settings on record: competition assay, pretreatment before 7PQYnD photoaffinity labeling.
Method: Target engagement was confirmed by Streptavidin mass shift assay, whereby lysates are incubated with streptavidin and subsequently separated by SDS–PAGE. The high stability of streptavidin at a range of temperatures, in various detergents and pH, in combination with the extremely high affinity for biotin means the streptavidin–biotin interaction is not separated during gel electrophoresis, resulting in a mass shift of biotin-labeled proteins in the presence of streptavidin, which can be visualized by Western blot (Figure a).
I2.1 cells were seeded in sterile six-well plates at a density of 2 × 10^6 cells per well and incubated at 37 °C overnight. 1000× stocks of the desired concentration of compound in DMSO were preprepared. […]
Cells were transferred to a microcentrifuge tube, centrifuged at 200g for 5 min, and media removed. […] Protein concentration was determined using the DC Protein Assay (Bio-Rad) in a 96-well plate as per the manufacturer’s instructions and the concentration adjusted to 1–2 mg mL^–1 using lysis buffer. […]
Samples were prepared by adding 4 μL of 4× loading buffer to 10 μL of the protein samples and boiling at 95 °C for 10 min. […] In-gel fluorescence was detected by using a Typhoon FLA 9500 biomolecular imager (750 V, 100 μm pixels). […]

Assay [2] relates to RIPK1 Ser166 phosphorylation. The assay is described as follows: Western blot of RIPK1 Ser166 phosphorylation in I2.1 cells. The following applies: prior treatment with 10 μM compound. The class given is cell-based, human. The method, then: All compound treatments were performed with a preprepared 1000× stock of the desired concentration in DMSO and added directly to the relevant plate, with a final concentration of 0.1% DMSO on the cells. TNF (final concentration 575 pM) was added to induce necroptosis, the cells incubated for 4 h and harvested.
Cells were transferred to a microcentrifuge tube and centrifuged at 200g for 5 min, and media were removed. Cells were washed with PBS and lysed with 100 μL of lysis buffer (radioimmunoprecipitation assay lysis buffer, Sigma-Aldrich, R0278) supplemented with 1× phosphatase inhibitor cocktail 2 (Sigma, P5726) and 1× complete EDTA-free protease inhibitor cocktail (Sigma, […])) on ice for 30 min. The lysate was collected by centrifugation at 17,000g, 4 °C for 5 min, and the lysate was transferred to a new microcentrifuge tube. Protein concentration was determined using the DC Protein Assay (Bio-Rad) in a 96-well plate as per the manufacturer’s instructions and subsequently adjusted to 1 mg mL^–1 using lysis buffer. Samples were prepared by adding 4 μL of 4× loading buffer (Biorad, 161-0747) containing β-mercaptoethanol to 12 μL of protein sample and boiling at 95 °C for 10 min. 14 μL of each sample was loaded onto a 4–15% Mini-PROTEAN TGX precast gel (Biorad, 456-1086) and run in 1× running buffer (0.25 M Tris, 0.2 M glycine, 0.1% (w/v) SDS) for 1.15 h at 130 V. Either 2 μL of precision plus protein all blue prestained protein standards (Bio-Rad, 1610373) or precision plus protein dual color standards (Bio-Rad, 1610374) was used in at least one well.
Proteins were transferred onto a nitrocellulose membrane (GE Healthcare) using the Trans-Blot Turbo Transfer System (Biorad, 1704150) at 2.5 A and 25 V for 7 min. The membrane was stained with Ponceau S to confirm protein transfer prior to blocking with 5% (w/v) nonfat dried skimmed milk in TBS-T (1× Tris-buffered saline, 0.1% (v/v) Tween-20) at rt for 1 h. Staining with the desired primary antibody in 5% (w/v) nonfat dried skimmed milk in TBS-T was performed overnight at 4 °C. The blot was washed with TBS-T at rt (3 × 5 min) and stained with secondary antibody in 5% (w/v) nonfat dried skimmed milk in TBS-T for 1 h at rt. The blot was washed with TBS-T at rt (3 × 5 min), visualized with Immobilon Crescendo Western HRP substrate, and imaged using ImageQuant LAS-4000 Imaging System (Fujifilm), and the contrast normalized in Fiji.
A general note: Immunoblotting shows a protein as a band on a membrane.

For `CN1C(=O)C(Cc2c[nH]c3ccccc23)NC1=S` (centres unmarked) [Nec-1, Necrostatin 1], the “7PQYnD-mediated RIPK1 streptavidin band shift after pretreatment with competitor” value in assay [1] was “retained”. In assay [2], the “phosphorylation of RIPK1 Ser166 after TNF” value is “blocked”.
